Results reported in patent US7365053B2, “Selective N-acylation of A82846 glygopeptides analogs” (priority 2000, dated 2008).
≈ marks a conversion by molar mass, not a printed value.

Experiments:
[1] = test system: Enterococcus faecalis 2041; assay: Broth micro-dilution MIC; format: cell-based; settings: BHI medium
Procedure: (§1) The compounds of the present invention have in vitro activity against Gram-positive pathogenic bacteria. The antibacterial activity of the present compounds is illustrated in Tables III and IV. The minimal inhibitory concentrations (MICs) were determined using a standard broth micro-dilution assay. Table IV presents a comparison of the activity of illustrative compounds against representative vancomycin-resistant and vancomycin-sensitive enterococci (Enterococcus faecium and Enterococcus faecalis), mean geometric MIC (mcg/mL), as determined by the standard broth microdilution assay.
(§2) Assays for antimicrobial activity were performed using microbroth susceptibility testing methods as described by the NCCLS (National Committee for Clinical Laboratories Standards. 1990. Approved standard M7-A2. Methods for dilution antimicrobial susceptibility testing for bacteria that grow aerobically, 2 ed., Villanova Pa.). Brain-heart infusion medium (BHI) was used for testing of enterococci, and NCCLS recommendations for medium were followed for other bacteria.

[2] = test system: Staphylococcus aureus 489; assay: Broth micro-dilution MIC; format: cell-based
Procedure: as §1, §2

[3] = test system: Staphylococcus aureus X400; assay: Broth micro-dilution MIC; format: cell-based
Procedure: as §1, §2

[4] = test system: Enterococcus faecium 180-1; assay: Broth micro-dilution MIC; format: cell-based; settings: BHI medium
Procedure: as §1, §2

[5] = test system: Staphylococcus aureus S13E; assay: Broth micro-dilution MIC; format: cell-based
Procedure: as §1, §2

[6] = test system: Staphylococcus aureus 447; assay: Broth micro-dilution MIC; format: cell-based
Procedure: as §1, §2

[7] = test system: Staphylococcus haemolyticus 105; assay: Broth micro-dilution MIC; format: cell-based
Procedure: as §1, §2

Escherichia coli EC14 = assay: Broth micro-dilution MIC; format: cell-based
Procedure: as §1, §2

[8] = test system: Staphylococcus haemolyticus 415; assay: Broth micro-dilution MIC; format: cell-based
Procedure: as §1, §2

[9] = test system: Haemophilus influenzae RD; assay: Broth micro-dilution MIC; format: cell-based
Procedure: as §1, §2

[10] = test system: Streptococcus pyogenes C203; assay: Broth micro-dilution MIC; format: cell-based
Procedure: as §1, §2

[11] = test system: Staphylococcus epidermidis 270; assay: Broth micro-dilution MIC; format: cell-based
Procedure: as §1, §2

[12] = test system: Staphylococcus aureus SA1199; assay: Broth micro-dilution MIC; format: cell-based
Procedure: as §1, §2

[13] = test system: Staphylococcus aureus SA1199B; assay: Broth micro-dilution MIC; format: cell-based
Procedure: as §1, §2

[14] = test system: Enterococcus faecalis 276; assay: Broth micro-dilution MIC; format: cell-based; settings: BHI medium
Procedure: as §1, §2

Enterococcus faecium 180 = assay: Broth micro-dilution MIC; format: cell-based; settings: BHI medium
Procedure: as §1, §2

[15] = test system: Staphylococcus aureus 446; assay: Broth micro-dilution MIC; format: cell-based
Procedure: as §1, §2

[16] = test system: Enterococcus gallinarum 245; assay: Broth micro-dilution MIC; format: cell-based; settings: BHI medium
Procedure: as §1, §2

[17] = test system: Streptococcus pneumoniae P1; assay: Broth micro-dilution MIC; format: cell-based
Procedure: as §1, §2

[18] = test system: Staphylococcus aureus SA1199A; assay: Broth micro-dilution MIC; format: cell-based
Procedure: as §1, §2

[19] = test system: Staphylococcus aureus 491; assay: Broth micro-dilution MIC; format: cell-based
Procedure: as §1, §2

[20] = test system: Staphylococcus aureus X778; assay: Broth micro-dilution MIC; format: cell-based
Procedure: as §1, §2

[21] = test system: vancomycin-sensitive enterococci; assay: In vitro activity against enterococci, broth microdilution; format: cell-based, Enterococcus faecium and Enterococcus faecalis; settings: representative vancomycin-sensitive enterococci (E. faecium and E. faecalis); BHI medium
Procedure: as §1, §2

[22] = test system: vancomycin-resistant enterococci; assay: as above; format: cell-based, Enterococcus faecium and Enterococcus faecalis; settings: representative vancomycin-resistant enterococci (E. faecium and E. faecalis); BHI medium
Procedure: as §1, §2

Row | SMILES | MIC [1] | MIC [2] | MIC [3] [µg/mL] | MIC [4] | MIC [5] | MIC [6] [µg/mL] | MIC [7] | MIC (Escherichia coli EC14) [µg/mL] | MIC [8] [µg/mL] | MIC [10] | MIC [11] | MIC [12] | MIC [13] | MIC [14] | MIC (Enterococcus faecium 180) [µg/mL] | MIC [15] | MIC [16] [µg/mL] | MIC [17] | MIC [18] | MIC [19] | other results
1 | CCCCCCCCOc1ccc(C(=O)NC2(C)CC(OC3c4ccc(c(Cl)c4)Oc4cc5cc(c4OC4OC(CO)C(O)C(O)C4OC4CC(C)(N)C(O)C(C)O4)Oc4ccc(cc4Cl)C(O)C(NC(=O)C(CC(C)C)NC)C(=O)NC(CC(N)=O)C(=O)NC5C(=O)NC4C(=O)NC3C(=O)NC(C(=O)O)c3cc(O)cc(O)c3-c3cc4ccc3O)OC(C)C2O)cc1 (centres unmarked) [Example 7] | ≦.06 μg/ml | ≦.06 μg/ml | 0.125 (≈ 0.0685 µM) | ≦.06 μg/ml | ≦.06 μg/ml | 0.125 (≈ 0.0685 µM) | ≦.06 μg/ml | >64 | 8 (≈ 4.38 µM) | ≦.06 μg/ml | ≦.06 μg/ml | ≦.06 μg/ml | ≦.06 μg/ml | ≦.06 μg/ml | 0.5 (≈ 0.274 µM) | ≦.06 μg/ml | 8 (≈ 4.38 µM) | ≦.06 μg/ml | ≦.06 μg/ml | ≦.06 μg/ml | MIC [9]: >64 µg/mL; MIC [20]: 0.125 µg/mL (≈ 0.0685 µM); Mean geometric MIC, Vancomycin Sensitive Strains [21]: 0.06 µg/mL; Mean geometric MIC, Vancomycin Resistant Strains [22]: 6.7 µg/mL
2 | CNC(CC(C)C)C(=O)NC1C(=O)NC(CC(N)=O)C(=O)NC2C(=O)NC3C(=O)NC(C(=O)NC(C(=O)O)c4cc(O)cc(O)c4-c4cc3ccc4O)C(OC3CC(C)(N)C(O)C(C)O3)c3ccc(c(Cl)c3)Oc3cc2cc(c3OC2OC(CO)C(O)C(O)C2OC2CC(C)(NC(=O)CCCCCCCc3ccccc3)C(O)C(C)O2)Oc2ccc(cc2Cl)C1O (centres unmarked) [Example 11] | ≦.06 μg/ml | 0.25 µg/mL (≈ 0.139 µM) | 0.5 (≈ 0.279 µM) | ≦.06 μg/ml | 0.25 µg/mL (≈ 0.139 µM) | 2 (≈ 1.11 µM) | ≦.06 μg/ml | >64 | 4 (≈ 2.23 µM) | ≦.06 μg/ml | 1 µg/mL (≈ 0.557 µM) | 1 µg/mL (≈ 0.557 µM) | 0.25 µg/mL (≈ 0.139 µM) | 0.25 µg/mL (≈ 0.139 µM) | 0.5 (≈ 0.279 µM) | 1 µg/mL (≈ 0.557 µM) | 4 (≈ 2.23 µM) | ≦.06 μg/ml | ≦.06 μg/ml | 0.125 µg/mL (≈ 0.0696 µM) | MIC [20]: 0.125 µg/mL (≈ 0.0696 µM); Mean geometric MIC, Vancomycin Sensitive Strains [21]: 0.093 µg/mL; Mean geometric MIC, Vancomycin Resistant Strains [22]: 9.5 µg/mL
3 | CC(C)CC(C(=O)NC1C(=O)NC(CC(N)=O)C(=O)NC2C(=O)NC3C(=O)NC(C(=O)NC(C(=O)O)c4cc(O)cc(O)c4-c4cc3ccc4O)C(OC3CC(C)(N)C(O)C(C)O3)c3ccc(c(Cl)c3)Oc3cc2cc(c3OC2OC(CO)C(O)C(O)C2OC2CC(C)(N)C(O)C(C)O2)Oc2ccc(cc2Cl)C1O)N(C)C(=O)CCCCCCCc1ccccc1 (centres unmarked) [Example 13] | 0.25 µg/mL (≈ 0.139 µM) | 0.125 µg/mL (≈ 0.0696 µM) | 0.25 (≈ 0.139 µM) | ≦.06 μg/ml | 0.5 µg/mL (≈ 0.279 µM) | 0.5 (≈ 0.279 µM) | ≦.06 μg/ml | >64 | 8 (≈ 4.46 µM) | ≦.06 μg/ml | 0.25 µg/mL (≈ 0.139 µM) | 0.5 µg/mL (≈ 0.279 µM) | 0.25 µg/mL (≈ 0.139 µM) | 0.25 µg/mL (≈ 0.139 µM) | 8 (≈ 4.46 µM) | 0.5 µg/mL (≈ 0.279 µM) | 2 (≈ 1.11 µM) | ≦.06 μg/ml | ≦.06 μg/ml | 0.125 µg/mL (≈ 0.0696 µM) | MIC [20]: 0.25 µg/mL (≈ 0.139 µM); Mean geometric MIC, Vancomycin Sensitive Strains [21]: 1.5 µg/mL; Mean geometric MIC, Vancomycin Resistant Strains [22]: >51 µg/mL
4 | CCCCCCCC(=O)NC1(C)CC(OC2c3ccc(c(Cl)c3)Oc3cc4cc(c3OC3OC(CO)C(O)C(O)C3OC3CC(C)(N)C(O)C(C)O3)Oc3ccc(cc3Cl)C(O)C(NC(=O)C(CC(C)C)NC)C(=O)NC(CC(N)=O)C(=O)NC4C(=O)NC3C(=O)NC2C(=O)NC(C(=O)O)c2cc(O)cc(O)c2-c2cc3ccc2O)OC(C)C1O (centres unmarked) [Example 9, 6′-N-octanoyl-A82846B] | 0.5 µg/mL (≈ 0.291 µM) | 0.125 µg/mL (≈ 0.0727 µM) | 0.5 (≈ 0.291 µM) | 0.125 µg/mL (≈ 0.0727 µM) | 1 µg/mL (≈ 0.582 µM) | 2 (≈ 1.16 µM) | 0.25 µg/mL (≈ 0.145 µM) | >64 | 16 (≈ 9.31 µM) | ≦.06 μg/ml | 2 µg/mL (≈ 1.16 µM) | 0.5 µg/mL (≈ 0.291 µM) | 0.5 µg/mL (≈ 0.291 µM) | 0.125 µg/mL (≈ 0.0727 µM) | 32 (≈ 18.6 µM) | 1 µg/mL (≈ 0.582 µM) | 16 (≈ 9.31 µM) | ≦.06 μg/ml | 0.125 µg/mL (≈ 0.0727 µM) | 0.125 µg/mL (≈ 0.0727 µM) | MIC [9]: 64 µg/mL (≈ 37.2 µM); MIC [20]: 0.25 µg/mL (≈ 0.145 µM); Mean geometric MIC, Vancomycin Sensitive Strains [21]: 1.2 µg/mL; Mean geometric MIC, Vancomycin Resistant Strains [22]: >90 µg/mL
5 | CCCCCCCC(=O)N(C)C(CC(C)C)C(=O)NC1C(=O)NC(CC(N)=O)C(=O)NC2C(=O)NC3C(=O)NC(C(=O)NC(C(=O)O)c4cc(O)cc(O)c4-c4cc3ccc4O)C(OC3CC(C)(N)C(O)C(C)O3)c3ccc(c(Cl)c3)Oc3cc2cc(c3OC2OC(CO)C(O)C(O)C2OC2CC(C)(N)C(O)C(C)O2)Oc2ccc(cc2Cl)C1O (centres unmarked) [Example 10, 1′-N-octanoyl-A82846B] | 0.25 µg/mL (≈ 0.145 µM) | 0.25 µg/mL (≈ 0.145 µM) | 0.5 (≈ 0.291 µM) | ≦.06 μg/ml | 0.5 µg/mL (≈ 0.291 µM) | 1 (≈ 0.582 µM) | 1 µg/mL (≈ 0.582 µM) | >64 | 16 (≈ 9.31 µM) | ≦.06 μg/ml | 0.5 µg/mL (≈ 0.291 µM) | 0.5 µg/mL (≈ 0.291 µM) | 0.5 µg/mL (≈ 0.291 µM) | 0.25 µg/mL (≈ 0.145 µM) | 32 (≈ 18.6 µM) | 1 µg/mL (≈ 0.582 µM) | 2 (≈ 1.16 µM) | ≦.06 μg/ml | 0.125 µg/mL (≈ 0.0727 µM) | 0.25 µg/mL (≈ 0.145 µM) | MIC [20]: 0.5 µg/mL (≈ 0.291 µM); Mean geometric MIC, Vancomycin Sensitive Strains [21]: 2.3 µg/mL; Mean geometric MIC, Vancomycin Resistant Strains [22]: 90 µg/mL
6 | CNC(CC(C)C)C(=O)NC1C(=O)NC(CC(N)=O)C(=O)NC2C(=O)NC3C(=O)NC(C(=O)NC(C(=O)O)c4cc(O)cc(O)c4-c4cc3ccc4O)C(OC3CC(C)(NC(=O)CCCCCCCc4ccccc4)C(O)C(C)O3)c3ccc(c(Cl)c3)Oc3cc2cc(c3OC2OC(CO)C(O)C(O)C2OC2CC(C)(N)C(O)C(C)O2)Oc2ccc(cc2Cl)C1O (centres unmarked) [Example 12] | ≦.06 μg/ml | ≦.06 μg/ml | 0.125 (≈ 0.0696 µM) | ≦.06 μg/ml | ≦.06 μg/ml | 2 (≈ 1.11 µM) | ≦.06 μg/ml | >64 | 8 (≈ 4.46 µM) | ≦.06 μg/ml | 2 µg/mL (≈ 1.11 µM) | 0.25 µg/mL (≈ 0.139 µM) | 0.125 µg/mL (≈ 0.0696 µM) | ≦.06 μg/ml | 2 (≈ 1.11 µM) | 0.125 µg/mL (≈ 0.0696 µM) | 8 (≈ 4.46 µM) | ≦.06 μg/ml | ≦.06 μg/ml | ≦.06 μg/ml | MIC [20]: ≦.06 μg/ml; Mean geometric MIC, Vancomycin Sensitive Strains [21]: 0.33 µg/mL; Mean geometric MIC, Vancomycin Resistant Strains [22]: 45 µg/mL
